Measurements: patent publication US6677431B2, “Design, preparation, and properties of antibacterial β-peptides” (The Trustees of the University of Pennsylvania, priority 1999, dated 2004)
pIC50: −log10 of the molar value. Like-named read-outs stand apart in the source and are kept apart here.

Experiments:
[1] = Peptide-induced leakage of liposomal contents (calcein release)
Description: The leakage of liposome contents to the external media was monitored by the release of calcein encapsulated in vesicles. The vesicle was prepared by reverse-phase evaporation in 10 mM sodium phosphate buffer, pH 7, followed by single extrusion through one 0.2 μm pore size polycarbonate filter. The non trapped calcein was removed by eluting through a size exclusion Sephadex G-25 column, with 90 mM sodium chloride, 10 mM sodium phosphate, pH 7. The leaking kinetics was monitored by follow the increase of calcein fluorescence intensity at 520 nm (excitation at 490 nm) due to release of self-quenching. The experiment was carried out on a Hitachi F-2500 Fluoresence spectrophotometer, with a slit width of […]. The initial rate was calculated from the linear part of the %leakage vs. time curve.
The mechanism of how the antibacterial peptides work is still on debate. However, it is generally believed they kill the cell by disturbing cell membranes. The experiment of peptide-induced leakage of liposomal contents is a direct way to monitor this process. Large unilammilar vesicles (LUV) of SOPS/SOPC (1:9) were used in the binding study. The leakage of encapsulated calcein was detected by its fluorescence at 515 nm. The fraction of bound lipid at different peptide concentration was calculated and overlaid in FIG. 4 as well. The lysis abilities of the two peptides are similar at low peptide concentration, and become quite different with increasing amount of peptide. […] With increase of peptide concentration, the leakage percentage increases quickly. For peptide 2, the leakage percentage jumps to 100% within the range between 0.05 μM and 0.14 μM where the corresponding fractions of lipid bound are about 10% 40%, respectively. […] The percentage of leakage increases to about 80% when the peptide concentration reaches 0.5 μM. The lysis ability stays at a plateau until the peptide concentration is pushed up to 2 μM, when about 60% of lipid molecules are bound to peptide molecules. […] The difference between the two peptides is even more obvious when looking at the leakage rate right after the addition of peptide to the vesicle solution, as shown in FIG. 3. The initial leakage rate for peptide 2 increases sharply when the peptide concentration increases from 0.14 μM to 0.19 μM. […] For peptide 1, the leakage initial rate increases in a continuous fashion, and 100% leakage is not complete until 300 s with 5.18 μM peptide.

micF-lux fusion = assay: Stress-induced response assay, induction of micF-lux fusion; format: cell-based; conditions: for induction of micF-lux: Group II peptides; for micF gene fusion response: Table 4, regulatory gene Rob
Description: Stress-induced response and growth inhibition assays were carried out on samples of four of the β-peptide and compared to known polycationic peptides.
Polymyxin B was tested both rich, LB, medium and defined, M9, medium. The other natural peptides were tested in LB medium.
The β-peptides were tested in M9 medium. * In LB medium (data from Oh et al. Biochem. Biophys. Acta. 2000,1463: 43-54)
However, similar to the magainins, no induction of the micF-lux fusion was observed. Also, the minimum inhibitory concentrations (MIC's) were determined to be higher than those reported in the published manuscript.
Samples of these β-peptides 1 and 2 were evaluated in the stress-induced response assays.
(§1) The biolumenescence data result from test carried out according to U.S. Pat. No. 5,683,868, Highly Sensitive Method For Detecting Environmental Insults, issued Nov. 4, 1997 to LaRossa et al., the entire contents of the disclosure of are hereby incorporated by reference, The tests described in this patent permit antibacterial properties of peptides or any other materials to be assessed. […] Along these lines, FIG. 5 illustrates a relationship between relative light units and minutes of exposure of bacteria to the various materials in the legend. P×B represents polymyxin, a known antibacterial material. In the graph, a decrease in RULs corresponds to a decrease in bacteria. […]

recA-lux bioluminescence = assay: Inhibition of recA-lux bioluminescence in M9 media; format: cell-based; conditions: inhibition of recA-lux bioluminescence in M9 media (Van Dyk lab)
Description: (§2) ∇in M9 medium (data from Hamuro et al., ref. 5) # In M9 medium.+Hemolysis experiments were performed by incubating a 0.25% suspension of human RBc's in 10 mM Tris buffer containing […] at pH 7.0 with varying amounts of peptide. The hemolytic dose required to lyse 50% of the RBC's is reported as the HD50.
as §1

[2] = Hemolysis assay, 50% lysis of RBC's; format: cell-based, human; conditions: human, 0.25% suspension of human erythrocytes (RBCs)
Description: (§3) The biological activities of these peptides were measured using human erythrocytes and E. coli as models for mammalian and bacterial cells, respectively. Hemolysis was monitored in 10 mM Tris, 150 mM NaCl, pH 7.0, while the bacterial assay was conducted in minimal media M9 (Table 1); both of these solutions are sufficiently transparent to allow CD and ultracentrifugation measurements (supplementary material). Under the assay conditions, the peptides gave CD spectra similar to those in Tris buffer, with the exception of H-(β^3-HLeu-β^3-HLys-β^3-HLeu)n-OH, n=5 and 6.
as §2
(§4) Hemolysis experiments were carried out by incubating 0.25% suspension of human erythrocytes (RBC's) with peptides of different concentrations in 150 mM sodium choloride, 10 mM Tris buffer, pH 7.0. The sample was prepared by combining 400 μL of the RBC suspension and […] of the peptide solution. After incubated the sample at 37— C. for 1 hour, the sample was centrifuged at 14,000 rpm for 5 min, and the OD414 of the supernatant was measured. Mellitin (50 μM) was used to get 100% hemolysis. The hemolytic IC50 was obtained by plotting hemolysis percentage vis. peptide concentration, and the concentration required for 50% hemolysis was determined from the smooth curve-fitted graph.
(§5) The activity and selectivity of peptide 1 and peptide 2 were examined by antibacterial assay and hemolysis experiments. E. Coli and human erythrotytes (RBC) were used as models for bacterial cell and mammalian cell, respectively. The peptide concentration required for 50% bacterial growth suppression (IC50), and peptide concentration required for 50% RBC lysis (HD50) are listed in Table 3. […] The antibacterial activities of peptide 1 and peptide 2 are about the same except peptide 2 has slightly lower IC50. Similar trend has been observed in the previous study, that longer peptide tends to have higher activity. However, the difference in IC50 is much smaller for this series of peptide than the previously studied ones. Antibacterial peptide with good selectivity is usually represented by its low hemolysis ability. […] The HD50 is 670 μM for peptide 1 and 240 μM for peptide 2, which gives a selectivity of 111 for peptide 1 and 60 for peptide 2.

[3] = system: human erythrocytes (RBC's); assay: Hemolysis assay, 50% lysis of RBC's; format: cell-based
Description: as §3, §2, §4, §5

K91 E. coli = format: cell-based
Description: as §3
Antibacterial assay was performed by incubation of K 91 E. coli and peptide of different concentrations in minimal media, at pH 7.4. The peptide solution (50 μL) and K 91 E. coli culture (20 μL, grown in minimal media for 24 hr-36 hr) were mixed with 1 mL minimal media. […] The peptide dose required for 50% suppress of bacterial growth was obtained from the smooth fitted OD600 vs. log[peptide] curve.
as §5

[4] = K91 E. coli, minimal media, pH 7.4 (DeGrado lab), read-out: IC50 *

Row | Structure (SMILES) | time to 100% leakage ([1]; 5.18 μM peptide) [s] | lysis of the vesicle ([1]; at 285 seconds, 5 μM peptide) | percentage of leakage ([1]; at 285 seconds, peptide 0.5 μM) | induction of micF-lux (micF-lux fusion) | micF gene fusion response (micF-lux fusion) | pIC50 (recA-lux bioluminescence) | HC50 at 1 h ([2]; pH 7) [µM] | HC50 [3] [µM] | HD50 [3] [µM] | pIC50 (K91 E. coli; [4]) | pIC50 (K91 E. coli; Table 5, read-out: IC50) | percentage of leakage ([1]; at 285 seconds, peptide between 0.05 μM and 0.14 μM) [%] | time to complete lysis of the vesicle ([1]; peptide concentration higher than 0.5 μM) [s] | HC50 at 1 h [2] [µM]
1 | CC(C)[C@@H](CC(N)=O)NC(=O)C[C@H](CCCCN)NC(=O)C[C@H](C)NC(=O)C[C@@H](NC(=O)C[C@H](CCCCN)NC(=O)C[C@H](C)NC(=O)C[C@@H](NC(=O)C[C@H](CCCCN)NC(=O)C[C@H](C)NC(=O)C[C@@H](NC(=O)C[C@H](CCCCN)NC(=O)C[C@H](C)N)C(C)C)C(C)C)C(C)C [Peptide 1] | 300 | Complete lysis | about 80% | induction | yes | 5.00 | 670 | 670 | 670 | 5.22 | 5.22 | – | – | –
2 | CC(C)[C@@H](CC(N)=O)NC(=O)C[C@H](CCCCN)NC(=O)C[C@H](C)NC(=O)C[C@@H](NC(=O)C[C@H](CCCCN)NC(=O)C[C@H](C)NC(=O)C[C@@H](NC(=O)C[C@H](CCCCN)NC(=O)C[C@H](C)NC(=O)C[C@@H](NC(=O)C[C@H](CCCCN)NC(=O)C[C@H](C)NC(=O)C[C@@H](NC(=O)C[C@H](CCCCN)NC(=O)C[C@H](C)N)C(C)C)C(C)C)C(C)C)C(C)C [Peptide 2] | – | – | – | induction | yes | 5.52 | – | 240 | 240 | 5.40 | 5.40 | 100 | ≤ 20 | 240
